ChEMBL document CHEMBL1201862, “PubChem BioAssay data set” (2004)
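In this assay, cells in 96-well plates receive the compound at five concentrations for 48 hours. Endpoints are linearly interpolated between the surrounding concentrations. GI50 = concentration required for 50% inhibition of growth.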 Calls of active or inactive are those of the source. No stated cut-off is given here; in the data, active = GI50 up to about 1.1 µM and inactive = higher.

What was measured:
Assay in all cases: NCI-60 cell line screen, 48 h
[1] = system: SNB-19
[2] = system: CAKI-1
[3] = system: K562
[4] = system: COLO 205
[5] = system: MDA-MB-231
[6] = system: HT-29
[7] = system: U-251
[8] = system: SF-268
[9] = system: KM12
[10] = system: HCT-116
[11] = system: EKVX
[12] = system: MDA-N
[13] = system: OVCAR-3
[14] = system: HL-60
[15] = system: RXF 393
[16] = system: T47D
[17] = system: HOP-62
[18] = system: M14
[19] = system: LOX IMVI
[20] = system: LXFL 529

SMILES | GI50 [1] | GI50 [2] | GI50 [3] | GI50 [4] | GI50 [5] | GI50 [6] | GI50 [7] | GI50 [8] | GI50 [9] | GI50 [10] | GI50 [11] | GI50 [12] | GI50 [13] | GI50 [14] | GI50 [15] | GI50 [16] | GI50 [17] | GI50 [18] | GI50 [19] | GI50 [20]
O=C1c2cc3ccccc3cc2C2(c3ccc(Cl)cc3)NCCN12 (configuration not stated) | 24.5 µM (inactive) | 44.7 µM (inactive) | 61.7 µM (inactive) | 17.6 µM (inactive) | 87.7 µM (inactive) | 34.8 µM (inactive) | 34.9 µM (inactive) | 44.2 µM (inactive) | 20.7 µM (inactive) | 18 µM (inactive) | 26.5 µM (inactive) | 28.2 µM (inactive) | 23.6 µM (inactive) | 25.8 µM (inactive) | 21.8 µM (inactive) | 39.7 µM (inactive) | 32.4 µM (inactive) | 26.8 µM (inactive) | 21.9 µM (inactive) | –
CCOP(=O)(OCC)OC(C#N)c1ccc(-c2ccccc2)cc1 (configuration not stated) | 73.1 µM (inactive) | 22.4 µM (inactive) | 20.3 µM (inactive) | 18.2 µM (inactive) | – | 17.9 µM (inactive) | 15.2 µM (inactive) | 18.2 µM (inactive) | 18.2 µM (inactive) | 15.2 µM (inactive) | 49 µM (inactive) | – | 19.1 µM (inactive) | 18.4 µM (inactive) | – | – | 34.5 µM (inactive) | 18.4 µM (inactive) | 13.7 µM (inactive) | 17.8 µM (inactive)
NC(=S)NS(=O)(=O)c1ccc(Cl)cc1 | > 100 µM (inactive) | > 100 µM (inactive) | > 100 µM (inactive) | > 100 µM (inactive) | > 100 µM (inactive) | > 100 µM (inactive) | > 100 µM (inactive) | > 100 µM (inactive) | > 100 µM (inactive) | > 100 µM (inactive) | 83.2 µM (inactive) | > 100 µM (inactive) | > 100 µM (inactive) | > 100 µM (inactive) | > 100 µM (inactive) | > 100 µM (inactive) | > 100 µM (inactive) | > 100 µM (inactive) | > 100 µM (inactive) | –
CN(C)P(=O)(Oc1ccc(CC(NC(=O)OCc2ccccc2)C(=O)OCc2ccccc2)cc1)N(C)C (configuration not stated) | 20 µM (inactive) | 17.6 µM (inactive) | 22.7 µM (inactive) | 20.9 µM (inactive) | 17.5 µM (inactive) | 10.1 µM (inactive) | 13.8 µM (inactive) | 13.4 µM (inactive) | 20 µM (inactive) | 15.9 µM (inactive) | 15.7 µM (inactive) | 16.8 µM (inactive) | 3.43 µM (inactive) | 13.2 µM (inactive) | 17.5 µM (inactive) | 21 µM (inactive) | 17.1 µM (inactive) | 13.4 µM (inactive) | 16 µM (inactive) | –
CC(=O)OC1CC2(c3ccccc3)C(=O)c3ccccc3N2O1 (configuration not stated) | > 100 µM (inactive) | – | > 100 µM (inactive) | > 100 µM (inactive) | – | > 100 µM (inactive) | > 100 µM (inactive) | > 100 µM (inactive) | – | > 100 µM (inactive) | 78.3 µM (inactive) | – | – | > 100 µM (inactive) | > 100 µM (inactive) | – | > 100 µM (inactive) | > 100 µM (inactive) | – | > 100 µM (inactive)
O=C(CCC(=O)Nc1ccc(Cl)cc1)CC(=O)c1ccc(F)cc1 | > 100 µM (inactive) | > 100 µM (inactive) | > 100 µM (inactive) | > 100 µM (inactive) | – | > 100 µM (inactive) | – | > 100 µM (inactive) | > 100 µM (inactive) | > 100 µM (inactive) | – | – | > 100 µM (inactive) | > 100 µM (inactive) | – | – | > 100 µM (inactive) | > 100 µM (inactive) | > 100 µM (inactive) | > 100 µM (inactive)
CC1=C(C(=O)O)N2C(=O)[C@@H](NC(=O)C(c3ccccc3)N3CSC(=S)N(C(C)C)C3)C2SC1 (some centres not stated) | > 100 µM (inactive) | > 100 µM (inactive) | 74.1 µM (inactive) | 86.3 µM (inactive) | – | > 100 µM (inactive) | > 100 µM (inactive) | – | > 100 µM (inactive) | > 100 µM (inactive) | > 100 µM (inactive) | – | > 100 µM (inactive) | > 100 µM (inactive) | – | – | > 100 µM (inactive) | > 100 µM (inactive) | > 100 µM (inactive) | > 100 µM (inactive)
O=C(NC12CC3CC(CC(C3)C1)C2)n1cnc2cncnc21 | 93.3 µM (inactive) | 28.4 µM (inactive) | 35.1 µM (inactive) | 20.6 µM (inactive) | 70 µM (inactive) | 28.4 µM (inactive) | 35.3 µM (inactive) | 53.5 µM (inactive) | 30.8 µM (inactive) | 32.7 µM (inactive) | 37.6 µM (inactive) | 33.5 µM (inactive) | 18.2 µM (inactive) | 28.7 µM (inactive) | 26.5 µM (inactive) | 20.6 µM (inactive) | 18.2 µM (inactive) | 54.7 µM (inactive) | 25.8 µM (inactive) | –
O=c1oc2c(ccc3ccccc32)cc1C1=CSC2=NCCN12 | 38.6 µM (inactive) | 75.5 µM (inactive) | 33.4 µM (inactive) | 50 µM (inactive) | 38.3 µM (inactive) | 45.3 µM (inactive) | 59.8 µM (inactive) | 57.9 µM (inactive) | 55.5 µM (inactive) | 32.4 µM (inactive) | 25.5 µM (inactive) | 51.6 µM (inactive) | 31.6 µM (inactive) | 34.7 µM (inactive) | 33.5 µM (inactive) | 30.5 µM (inactive) | 35.8 µM (inactive) | 50.2 µM (inactive) | 49.7 µM (inactive) | –
Cc1cc(N(CCC#N)CCC#N)ccc1/C=C1N=C(/C=C\c2ccccc2)N(NC(=O)CC(=O)Nc2ccccc2Cl)C\1=O | > 100 µM (inactive) | > 100 µM (inactive) | > 100 µM (inactive) | > 100 µM (inactive) | – | > 100 µM (inactive) | > 100 µM (inactive) | > 100 µM (inactive) | > 100 µM (inactive) | > 100 µM (inactive) | – | – | > 100 µM (inactive) | > 100 µM (inactive) | – | – | > 100 µM (inactive) | > 100 µM (inactive) | > 100 µM (inactive) | > 100 µM (inactive)
CCCC1N2CCCCC2[C@@H]2c3[nH]c4ccccc4c3CCN12 (some centres not stated) | > 100 µM (inactive) | > 100 µM (inactive) | > 100 µM (inactive) | > 100 µM (inactive) | – | > 100 µM (inactive) | > 100 µM (inactive) | > 100 µM (inactive) | – | > 100 µM (inactive) | > 100 µM (inactive) | – | > 100 µM (inactive) | > 100 µM (inactive) | > 100 µM (inactive) | – | > 100 µM (inactive) | > 100 µM (inactive) | – | > 100 µM (inactive)
CCC(C)(C)C(=O)O[C@H]1C[C@@H](C)C=C2C=C[C@H](C)[C@H](CC[C@@H]3C[C@@H](O)CC(=O)O3)[C@H]21 [SIMVASTATIN] | – | 4.03 µM (inactive) | 17.6 µM (inactive) | 12.1 µM (inactive) | – | 6.85 µM (inactive) | 0.766 µM (active) | – | 8.45 µM (inactive) | 3.27 µM (inactive) | 0.948 µM (active) | – | 23.1 µM (inactive) | 3.01 µM (inactive) | 0.811 µM (active) | – | 9.2 µM (inactive) | 2.25 µM (inactive) | – | 6.67 µM (inactive)
